Experimental findings from patent US20150175599A1, “FAAH Inhibitors” (Ironwood Pharmaceuticals, Inc., priority 2010, published 2015) are described below.

Where two headings read alike, the source gives them in different places. A value given as a limit tells only on which side of the number the result lay.

The target of the experiment is T1, human FAAH-1 (Homo sapiens, UniProt O00519).
T1 sequence (O00519 1-579): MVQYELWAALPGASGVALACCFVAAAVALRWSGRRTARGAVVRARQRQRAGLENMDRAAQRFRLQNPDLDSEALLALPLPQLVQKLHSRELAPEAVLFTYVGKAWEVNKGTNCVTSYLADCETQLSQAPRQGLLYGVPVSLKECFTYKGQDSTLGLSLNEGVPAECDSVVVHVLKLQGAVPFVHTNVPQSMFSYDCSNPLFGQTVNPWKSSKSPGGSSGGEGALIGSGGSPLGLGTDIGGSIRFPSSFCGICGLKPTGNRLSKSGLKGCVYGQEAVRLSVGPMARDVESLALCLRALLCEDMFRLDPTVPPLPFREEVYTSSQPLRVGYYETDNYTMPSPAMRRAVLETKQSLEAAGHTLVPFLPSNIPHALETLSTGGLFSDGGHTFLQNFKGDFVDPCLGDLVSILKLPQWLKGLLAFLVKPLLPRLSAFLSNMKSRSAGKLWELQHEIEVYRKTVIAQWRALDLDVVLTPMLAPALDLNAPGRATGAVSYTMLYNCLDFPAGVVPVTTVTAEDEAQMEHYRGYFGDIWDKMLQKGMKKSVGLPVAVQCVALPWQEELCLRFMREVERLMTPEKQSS
Briefly: Whole cell anandamide hydrolysis assay (HeLa clone 5c5 transfected with human FAAH-1). Type of experiment: cell-based. How it is done: FAAH activity was assayed in whole cells using methods disclosed previously (Maccarone et al., 1998 J Biol. Chem. 273:32332 and Bisogno et al., 1997 J Biol. Chem. 272:3315). In addition to the cell lines described in Maccarone et al. and Bisogno et al., MCF7 (ATCC designation HTB-22) and T84 (ATCC designation CCL-248) cell lines were also used in these assays.
cDNA expression clone for human FAAH-1 (in pcDNA3 vector) (Genbank Accession U82535; obtained from Benjamin Cravatt, Scripps Research Institute, La Jolla, Calif.) was linearized by digestion with BglII (New England Biolabs) and transfected by calcium phosphate into human HeLa cells (ATCC catalog #CCL-2). […] Following transfection, a stable HeLa-derived clone, designated 5c5, was isolated by single colony purification and expanded and maintained in modified Eagles medium (MEM; VWR catalog #45000-300) containing 10% fetal bovine serum (FBS), 2 mM L-glutamine, and 0.5 mg/mL G-418 (Sigma catalog #G5013).
Clone 5c5 (50,000 cells in 150 μL) was seeded into 96-well plates and incubated overnight (5% CO2, 37° C.). Media was carefully replaced with 180 μL DMEM/F12 medium (VWR catalog #45000-350) containing 15 mM HEPES, pH 7.4 and 0.1% fatty acid free BSA (Sigma catalog #A0281). Then, 2 μL of 100× desired final concentrations of certain exemplary compounds described herein were made up in DMSO, added to wells containing cells, and plates were incubated at 37° C. for 10 min. Next, 20 μL of 5 μM anandamide (Cayman catalog #90050) spiked with 8 μCi of anandamide-(ethanolamine-1-[^3H]) (American Radiolabeled Chemicals, Inc., catalog #ART 626) was added to the cells and the plates were incubated for an additional 15 min at 37° C. The reactions were terminated by chilling the plates on ice and adding 20 μL of 0.5M of potassium phosphate buffer (adjusted to pH 2.1 with phosphoric acid).
The acidified reactions were transferred to 96-well filter plates (0.25 mL capacity/well, 1.2 micron glass fiber pre-filter packed above 0.65 micron pore-size PVDF membrane, Millipore catalog MSFCN6B50) containing 25 μL charcoal (neutral activated carbon, Fisher Scientific catalog C170-500) per well. Prior to the assay, charcoal was measured and loaded onto the plate using an aluminum 96-well column loading device (Millipore catalog MACL09625). The filter plate was assembled over an empty 96-well plate (Costar) using a centrifuge alignment frame (Millipore catalog MACF09604) to allow for collection of the filtrate in the receiver plate. The charcoal glass-fiber filter plates were pre-washed with methanol by centrifugation 650×g for 10 min). Next, 80 μL of water was added to the wells of the pre-washed 96 well charcoal filter plate. Then, 90 μL of the acidified reaction mixture was added to the water in the wells of the charcoal plate. The samples were centrifuged as above. The substrate remained bound to the charcoal, whereas the [^3H]-ethanolamine product formed flowed through and was transferred to the microplates containing scintillation cocktail and quantified in a micro-plate scintillation counter (Perkin-Elmer Microbeta). Control reactions with either no cells or cells treated with DMSO alone were performed in triplicate and used to define background (no cells) and 100% activity (DMSO alone).
Following subtraction of background radioactivity, data were expressed as percent inhibition relative to 100% activity and fit with a nonlinear regression curve using GraphPad Prism Software (GraphPad Software Inc). IC50 values were calculated from the resulting dose-response curves constrained at top and bottom to 100% and 0%, respectively.

Where [1] appears, read: HeLa clone 5c5 expressing human FAAH-1, read-out: human FAAH whole cell IC50.

The term IC50 denotes the point on the concentration scale where inhibition reaches its midpoint. For the compound `COc1cc(NC(=O)C(=O)c2c(C)n(Cc3ccc(Cl)cc3)c3ccc(CN(C)C)cc23)ccn1` [Compound 26, 2-(1-(4-chlorobenzyl)-5-((dimethylamino)methyl)-2-methyl-1H-indol-3-yl)-N-(2-methoxypyridin-4-yl)-2-oxoacetamide], the IC50 under setting [1] was < 100 nM. For `COc1cc(NC(=O)C(=O)c2c(C)n(Cc3ccc(Cl)cc3)c3ccc(C#N)cc23)ccn1` [Compound 15, 2-(1-(4-chlorobenzyl)-5-cyano-2-methyl-1H-indol-3-yl)-N-(2-methoxypyridin-4-yl)-2-oxoacetamide], the half-maximal inhibitory concentration (IC50) under setting [1] was < 100 nM. On the same count and under the same terms, for `COc1ccc(Cn2c(C)c(C(=O)C(=O)Nc3ccnc(OC)c3)c3cc(OC)c(Cl)cc32)nc1` [Compound 98, 2-(6-chloro-5-methoxy-1-((5-methoxypyridin-2-yl)methyl)-2-methyl-1H-indol-3-yl)-N-(2-methoxypyridin-4-yl)-2-oxoacetamide] the value was < 100 nM; for `COc1ccc2c(c1)c(C(=O)C(=O)Nc1ccnc(O)c1)c(C)n2Cc1ccc(Cl)cc1` [Compound 50, 2-(1-(4-chlorobenzyl)-5-methoxy-2-methyl-1H-indol-3-yl)-N-(2-hydroxypyridin-4-yl)-2-oxoacetamide], 1000 to 10000 nM; for `COc1cc(NC(=O)C(=O)c2c(C)n(Cc3ccc(Cl)cn3)c3ncc(C)cc23)ccn1` [Compound 75, (1-((5-chloropyridin-2-yl)methyl)-2,5-dimethyl-1H-pyrrolo[2,3-b]pyridin-3-yl)-N-(2-methoxypyridin-4-yl)-2-oxoacetamide], < 100 nM. The same measure, in the same setting: the result for `COc1cc(NC(=O)C(=O)c2c(C)n(Cc3ccc(Cl)cc3)c3ccc(N(C)C(=O)OC(C)(C)C)cc23)ccn1` [Compound 7, Tert-butyl(1-(4-chlorobenzyl)-3-(2-((2-methoxypyridin-4-yl)amino)-2-oxoacetyl)-2-methyl-1H-indol-5-yl)(methyl)carbamate] reads 100 to 1000 nM; that for `COc1cc(NC(=O)C(=O)c2c(C)n(Cc3ccc(Cl)cc3)c3ccc(C(F)(F)F)cc23)ccn1` [Compound 21, 2-(1-(4-chlorobenzyl)-2-methyl-5-(trifluoromethyl)-1H-indol-3-yl)-N-(2-methoxypyridin-4-yl)-2-oxoacetamide], < 100 nM; that for `COc1cc(NC(=O)C(=O)c2c(C)n(Cc3ncc(Cl)cc3F)c3ccc(C)cc23)ccn1` [Compound 33, 2-(1-((5-chloro-3-fluoropyridin-2-yl)methyl)-2,5-dimethyl-1H-indol-3-yl)-N-(2-methoxypyridin-4-yl)-2-oxoacetamide], < 100 nM. Still for that read-out and setting: the result for `COc1cnc2c(c1)c(C(=O)C(=O)Nc1ccnc(OC)c1)c(C)n2Cc1ncc(Cl)cc1F` [Compound 34, 2-(1-((5-chloro-3-fluoropyridin-2-yl)methyl)-5-methoxy-2-methyl-1H-pyrrolo[2,3-b]pyridin-3-yl)-N-(2-methoxypyridin-4-yl)-2-oxoacetamide] reads < 100 nM; that for `COc1cc(NC(=O)C(=O)c2c(C)n(Cc3ccc(Cl)cc3)c3ccc(CO)cc23)ccn1` [Compound 8, 2-(1-(4-chlorobenzyl)-5-(hydroxymethyl)-2-methyl-1H-indol-3-yl)-N-(2-methoxypyridin-4-yl)-2-oxoacetamide], < 100 nM; that for `COc1ccc2c(c1)c(C(=O)C(=O)Nc1cc(Cl)nc(OC)c1)c(C)n2Cc1ccc(Cl)cc1` [Compound 47, N-(2-chloro-6-methoxypyridin-4-yl)-2-(1-(4-chlorobenzyl)-5-methoxy-2-methyl-1H-indol-3-yl)-2-oxoacetamide], < 100 nM. Turning to `COc1ccc2c(c1)c(C(=O)C(=O)Nc1ccnc(OC)c1)c(C)n2Cc1ncc(Cl)cc1OC` [Compound 100, 2-(1-((5-chloro-3-methoxypyridin-2-yl)methyl)-5-methoxy-2-methyl-1H-indol-3-yl)-N-(2-methoxypyridin-4-yl)-2-oxoacetamide], the IC50 under setting [1] was < 100 nM.

For `COc1cc(NC(=O)C(=O)c2c(C)n(Cc3ccc(Cl)cc3)c3ccc(NC(C)=O)cc23)ccn1` [Compound 22, 2-(5-acetamido-1-(4-chlorobenzyl)-2-methyl-1H-indol-3-yl)-N-(2-methoxypyridin-4-yl)-2-oxoacetamide], under setting [1], the IC50 was < 100 nM.

Consider `COc1cc(NC(=O)C(=O)c2c(C)n(Cc3ncc(Cl)cc3Cl)c3cc(F)c(OC)cc23)ccn1` [Compound 13, 2-(1-((3,5-dichloropyridin-2-yl)methyl)-6-fluoro-5-methoxy-2-methyl-1H-indol-3-yl)-N-(2-methoxypyridin-4-yl)-2-oxoacetamide], for which the IC50 under setting [1] is < 100 nM.

As for `COc1cc(NC(=O)C(=O)c2c(C)n(Cc3ccc(Cl)cn3)c3cc(OC)c(Cl)cc23)ccn1` [Compound 67, 2-(5-chloro-1-((5-chloropyridin-2-yl)methyl)-6-methoxy-2-methyl-1H-indol-3-yl)-N-(2-methoxypyridin-4-yl)-2-oxoacetamide], under setting [1], the IC50 is < 100 nM.

Turning to `COc1cc(NC(=O)C(=O)c2c(C)n(Cc3ncc(Cl)cc3F)c3cc(F)c(OC)cc23)ccn1` [Compound 99, 2-(1-((5-chloro-3-fluoropyridin-2-yl)methyl)-6-fluoro-5-methoxy-2-methyl-1H-indol-3-yl)-N-(2-methoxypyridin-4-yl)-2-oxoacetamide], the IC50 under setting [1] was < 100 nM. On the same count and under the same terms, for `COc1cc(NC(=O)C(=O)c2c(C)n(Cc3ccc(Cl)cn3)c3ccc(C)cc23)ccn1` [Compound 61, 2-(1-((5-chloropyridin-2-yl)methyl)-2,5-dimethyl-1H-indol-3-yl)-N-(2-methoxypyridin-4-yl)-2-oxoacetamide] the value was < 100 nM.

For the compound `COc1cc(NC(=O)C(=O)c2c(C)n(Cc3ncc(F)cc3F)c3ccc(C)cc23)ccn1` [Compound 88, 2-(1-((3,5-difluoropyridin-2-yl)methyl)-2,5-dimethyl-1H-indol-3-yl)-N-(2-methoxypyridin-4-yl)-2-oxoacetamide], the IC50 is < 100 nM.

In the case of `COc1cnc2c(c1)c(C(=O)C(=O)Nc1ccnc(OC)c1)c(C)n2Cc1ccc(Cl)cc1` [Compound 38, 2-(1-(4-chlorobenzyl)-5-methoxy-2-methyl-1H-pyrrolo[2,3-b]pyridin-3-yl)-N-(2-methoxypyridin-4-yl)-2-oxoacetamide], the IC50 under setting [1] is < 100 nM. The same measure, in the same setting: the result for `C=Cc1ccc2c(c1)c(C(=O)C(=O)Nc1ccnc(OC)c1)c(C)n2Cc1ccc(Cl)cc1` [Compound 27, 2-(1-(4-chlorobenzyl)-2-methyl-5-vinyl-1H-indol-3-yl)-N-(2-methoxypyridin-4-yl)-2-oxoacetamide] reads < 100 nM; that for `COc1cc(NC(=O)C(=O)c2c(C)n(Cc3ccc(Cl)cn3)c3ccc(N(C)C)cc23)ccn1` [Compound 66, 2-(1-((5-chloropyridin-2-yl)methyl)-5-(dimethylamino)-2-methyl-1H-indol-3-yl)-N-(2-methoxypyridin-4-yl)-2-oxoacetamide], < 100 nM.
